Measured values: ChEMBL document CHEMBL3352659, “Indolinone-based acetylcholinesterase inhibitors: synthesis, biological activity and molecular modeling” (Eur J Med Chem, 2014)

Legend:
Cholinesterase = Cholinesterase (Equus caballus, UniProt P81908); experiment: Inhibition of equine serum BuChE using butyrylthiocholine iodide substrate by Ellman method based spectrophotometry
Acetylcholinesterase [1] = target: T1, Acetylcholinesterase (Electrophorus electricus, UniProt O42275); experiment: Inhibition of electric eel AChE using acetylthiocholine iodide substrate by Ellman method based spectrophotometry
[2] = Selectivity index, ratio of IC50 for equine serum BuChE to IC50 for electric eel AChE
Acetylcholinesterase [3] = target: T1, Acetylcholinesterase; experiment: Mixed type inhibition of electric eel AChE using acetylthiocholine iodide substrate by Lineweaver-Burk plot analysis

T1 sequence (O42275 whole entry): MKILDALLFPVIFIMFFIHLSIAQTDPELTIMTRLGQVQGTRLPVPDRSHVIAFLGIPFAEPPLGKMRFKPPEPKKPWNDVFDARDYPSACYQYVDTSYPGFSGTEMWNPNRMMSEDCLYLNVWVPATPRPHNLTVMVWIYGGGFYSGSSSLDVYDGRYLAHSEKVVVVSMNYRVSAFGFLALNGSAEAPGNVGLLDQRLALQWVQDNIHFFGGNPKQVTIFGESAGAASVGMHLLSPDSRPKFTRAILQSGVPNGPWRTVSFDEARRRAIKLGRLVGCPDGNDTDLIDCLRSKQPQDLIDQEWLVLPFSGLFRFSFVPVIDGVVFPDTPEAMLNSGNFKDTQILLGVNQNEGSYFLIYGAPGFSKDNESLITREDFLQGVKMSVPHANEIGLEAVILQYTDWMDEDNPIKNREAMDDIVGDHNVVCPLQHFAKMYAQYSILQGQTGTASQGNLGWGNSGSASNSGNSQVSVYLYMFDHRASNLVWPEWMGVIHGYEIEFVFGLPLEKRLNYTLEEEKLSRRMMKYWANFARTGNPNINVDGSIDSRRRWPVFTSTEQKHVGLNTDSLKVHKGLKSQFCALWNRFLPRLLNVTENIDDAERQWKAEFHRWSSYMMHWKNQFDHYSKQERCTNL
Sequence of Cholinesterase (P81908 whole entry): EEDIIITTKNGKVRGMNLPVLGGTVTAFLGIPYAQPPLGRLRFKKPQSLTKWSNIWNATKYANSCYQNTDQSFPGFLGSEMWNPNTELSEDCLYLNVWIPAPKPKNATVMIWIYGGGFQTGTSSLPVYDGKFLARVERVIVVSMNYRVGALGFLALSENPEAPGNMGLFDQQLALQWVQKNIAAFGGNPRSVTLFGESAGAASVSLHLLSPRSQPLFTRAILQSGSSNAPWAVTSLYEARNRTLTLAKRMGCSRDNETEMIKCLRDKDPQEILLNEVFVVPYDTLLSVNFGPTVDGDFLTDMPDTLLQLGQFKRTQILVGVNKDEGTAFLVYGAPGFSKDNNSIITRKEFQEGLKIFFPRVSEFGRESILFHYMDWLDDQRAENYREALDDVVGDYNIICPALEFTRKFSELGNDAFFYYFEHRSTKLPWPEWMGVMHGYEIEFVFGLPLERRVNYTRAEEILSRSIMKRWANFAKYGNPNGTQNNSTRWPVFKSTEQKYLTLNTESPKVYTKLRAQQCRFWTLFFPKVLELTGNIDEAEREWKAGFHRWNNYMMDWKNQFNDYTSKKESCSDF

COc1cccc(C[n+]2ccc(/C=C3/C(=O)Nc4ccccc43)cc2)c1
IC50 (Cholinesterase): 2.8 µM
IC50 (Acetylcholinesterase [1]): 0.0066 µM
Ratio IC50 [2]: 424

O=C1Nc2ccccc2/C1=C\c1cc[n+](Cc2ccc(F)cc2)cc1
IC50 (Cholinesterase): 3.1 µM
IC50 (Acetylcholinesterase [1]): 0.677 µM
Ratio IC50 [2]: 4.58

O=C1Nc2ccccc2/C1=C\c1cc[n+](Cc2cccc(F)c2)cc1
IC50 (Cholinesterase): 4.5 µM
IC50 (Acetylcholinesterase [1]): 0.0128 µM
Ratio IC50 [2]: 352

O=C1Nc2ccccc2/C1=C\c1cc[n+](Cc2ccc(CCl)cc2)cc1
IC50 (Cholinesterase): 1 µM
IC50 (Acetylcholinesterase [1]): 0.103 µM
Ratio IC50 [2]: 9.67

O=C1Nc2ccccc2/C1=C\c1cc[n+](Cc2cccc(Br)c2)cc1
IC50 (Cholinesterase): 1.74 µM
IC50 (Acetylcholinesterase [1]): 0.0103 µM
Ratio IC50 [2]: 169

O=C1Nc2ccccc2/C1=C\c1cc[n+](Cc2ccc(Cl)cc2)cc1
IC50 (Cholinesterase): 2.2 µM
IC50 (Acetylcholinesterase [1]): 0.59 µM
Ratio IC50 [2]: 3.73

Cc1ccccc1C[n+]1ccc(/C=C2/C(=O)Nc3ccccc32)cc1
IC50 (Cholinesterase): 0.887 µM
IC50 (Acetylcholinesterase [1]): 0.0153 µM
Ratio IC50 [2]: 57.9

O=C1Nc2ccccc2/C1=C\c1cc[n+](Cc2ccccc2)cc1
IC50 (Cholinesterase): 4.3 µM
IC50 (Acetylcholinesterase [1]): 0.0471 µM
Ratio IC50 [2]: 91.3

O=C1Nc2ccccc2/C1=C\c1cc[n+](Cc2ccc(Br)cc2)cc1
IC50 (Cholinesterase): 1.9 µM
IC50 (Acetylcholinesterase [1]): 0.653 µM
Ratio IC50 [2]: 2.9

O=C1Nc2ccccc2/C1=C\c1cc[n+](Cc2ccccc2Cl)cc1
Ki (Acetylcholinesterase [3]): 0.00114 µM
IC50 (Cholinesterase): 1.37 µM
IC50 (Acetylcholinesterase [1]): 0.00044 µM
Ratio IC50 [2]: 3110

O=C1Nc2ccccc2/C1=C\c1cc[n+](Cc2c(F)cccc2Cl)cc1
IC50 (Cholinesterase): 2 µM
IC50 (Acetylcholinesterase [1]): 0.0041 µM
Ratio IC50 [2]: 488

O=C1Nc2ccccc2/C1=C\c1cc[n+](Cc2ccccc2[N+](=O)[O-])cc1
IC50 (Cholinesterase): 1.6 µM
IC50 (Acetylcholinesterase [1]): 0.214 µM
Ratio IC50 [2]: 7.5

COc1ccc(C[n+]2ccc(/C=C3/C(=O)Nc4ccccc43)cc2)cc1
IC50 (Cholinesterase): 7.9 µM
IC50 (Acetylcholinesterase [1]): 0.677 µM
Ratio IC50 [2]: 11.7

O=C1Nc2ccccc2/C1=C\c1cc[n+](Cc2ccc(Cl)c(Cl)c2)cc1
IC50 (Cholinesterase): 3.3 µM
IC50 (Acetylcholinesterase [1]): 0.0294 µM
Ratio IC50 [2]: 112

O=C1Nc2ccccc2/C1=C\c1cc[n+](Cc2ccc(Cl)cc2Cl)cc1
IC50 (Cholinesterase): 2.5 µM
IC50 (Acetylcholinesterase [1]): 0.258 µM
Ratio IC50 [2]: 9.7

O=C1Nc2ccccc2/C1=C\c1cc[n+](Cc2cccc(Cl)c2)cc1
IC50 (Cholinesterase): 1.35 µM
IC50 (Acetylcholinesterase [1]): 0.0049 µM
Ratio IC50 [2]: 276

O=C1Nc2ccccc2/C1=C\c1cc[n+](Cc2ccccc2F)cc1
IC50 (Cholinesterase): 4.27 µM
IC50 (Acetylcholinesterase [1]): 0.00125 µM
Ratio IC50 [2]: 3420

O=C1Nc2ccccc2/C1=C\c1cc[n+](Cc2ccccc2Br)cc1
IC50 (Cholinesterase): 1.23 µM
IC50 (Acetylcholinesterase [1]): 0.00146 µM
Ratio IC50 [2]: 842

O=C1Nc2ccccc2/C1=C\c1cc[n+](Cc2c(Cl)cccc2Cl)cc1
IC50 (Cholinesterase): 1.5 µM
IC50 (Acetylcholinesterase [1]): 0.017 µM
Ratio IC50 [2]: 88.2

O=C1Nc2ccccc2/C1=C\c1cc[n+](Cc2ccc([N+](=O)[O-])cc2)cc1
IC50 (Cholinesterase): 7.5 µM
IC50 (Acetylcholinesterase [1]): 0.744 µM
Ratio IC50 [2]: 10

Cc1cccc(C[n+]2ccc(/C=C3/C(=O)Nc4ccccc43)cc2)c1
IC50 (Cholinesterase): 1.7 µM
IC50 (Acetylcholinesterase [1]): 0.0052 µM
Ratio IC50 [2]: 327
